Entries after “also recorded” stand apart in the source; their conditions may differ.
How the values were obtained:
Assay type in all cases: cell-based
[1] = test system: Corynebacterium glutamicum strain R; assay: Growth inhibition by para-aminobenzoic acid in aerobic culture (OD610); conditions: aerobic shaking culture 33° C.
Method: (§1) Experiments about growth inhibition by para-aminobenzoic acid in aerobic culture were carried out, regarding Corynebacterium glutamicum, Escherichia coli, Streptomyces lividans, Pseudomonas putida, and Saccharomyces cerevisiae. No example of Pseudomonas putida S12 used in the present experiment has been reported to be a para-aminobenzoic acid producing host, but it was used as a comparative example, since it has been reported to be a solvent resistant bacterium and could be considered to have excellent resistance to para-aminobenzoic acid.
Corynebacterium glutamicum strain R was applied to an A-agar plate containing glucose at 4%, and was incubated at 33° C. for 15 hours in a dark place. One platinum loop of Corynebacterium glutamicum grown on the plate described above was inoculated in a test tube having therein 10 ml of the A-liquid medium containing of glucose at 4%, and was subjected to aerobic shaking culture at 33° C. for 15 hours. Corynebacterium glutamicum grown under the above-described conditions was inoculated in 10 ml of the A-liquid medium containing glucose at 4% so that the initial bacterial cell concentration OD610=0.05. […] The growth of bacterial cells was determined by measuring OD610.
(§2) How the addition of para-aminobenzoic acid to medium influenced aerobic growth was analyzed, and the results are shown in FIG. 1.

Escherichia coli JM109 = assay: as above; conditions: aerobic shaking culture 37° C.
Method: as §1
Escherichia coli JM109 was applied to LB-agar plate [containing 1% polypeptone, 0.5% yeast extract, 0.5% sodium chloride, and 1.5% agar], and was incubated at 37° C. for 15 hours in a dark place. Escherichia coli grown on the plate described above was inoculated in LB-liquid medium [containing 1% polypeptone, 0.5% yeast extract, and 0.5% sodium chloride], and was subjected to aerobic shaking culture at 37° C. for 13 hours. Escherichia coli grown under the above-described conditions was inoculated in 100 ml of LB-liquid medium so that the initial bacterial cell concentration OD610=0.05. […] The growth of bacterial cells was determined by measuring OD610.
as §2

[2] = test system: Streptomyces lividans 1326; assay: as above; conditions: for growth of Streptomyces lividans 1326: aerobic shaking culture 28° C.
Method: as §1
Streptomyces lividans 1326 was applied to LB-agar plate, and was incubated at 28° C. for 24 hours in a dark place. Streptomyces lividans grown on the plate described above was inoculated in LB-liquid medium with a coil spring, and aerobic shaking culture was carried out at 28° C. for 24 hours. Streptomyces lividans grown under the above-described conditions was inoculated in 10 ml of LB-liquid medium with a coil spring so that the initial bacterial cell concentration OD610=0.2. Simultaneously, para-aminobenzoic acid was added so that the final concentrations thereof became 0, 100, 200, 300 mM, and aerobic shaking culture was carried out at 28° C. The growth of bacterial cells was determined by measuring OD610.
as §2

Pseudomonas putida S12 = assay: as above
Method: as §1
Pseudomonas putida S12 was applied to the LB-agar plate, and was incubated at 30° C. for 15 hours in a dark place. Pseudomonas putida grown on the plate described above was inoculated in the LB-liquid medium, and aerobic shaking culture was carried out at 30° C. for 13 hours. Pseudomonas putida grown under the above-described conditions was inoculated in 100 ml of LB-liquid medium so that the initial bacterial cell concentration OD610=0.05, simultaneously, para-aminobenzoic acid was added so that the final concentrations thereof became 0, 100, 200, 300 mM, and aerobic shaking culture was carried out at 30° C. The growth of bacterial cells was determined by measuring absorbance of OD610.
as §2

[3] = test system: Saccharomyces cerevisiae W303; assay: as above; conditions: aerobic shaking culture 30° C.
Method: as §1
Saccharomyces cerevisiae W303 was applied to YEPD-agar plate [containing 2% polypeptone, 1% yeast extract, 2% glucose, and 1.5% agar] and was incubated at 30° C. for 20 hours in a dark place. Saccharomyces cerevisiae grown on the plate described above was inoculated in the YEPD-liquid medium [containing 2% polypeptone, 1% yeast extract, and 2% glucose], and aerobic shaking culture was carried out at 30° C. for 13 hours. Saccharomyces cerevisiae grown under the above-described conditions was inoculated in 100 ml of YEPD-liquid medium so that the initial bacterial cell concentration OD610=0.05. […] The growth of bacterial cells was determined by measuring OD610.
as §2

[4] = test system: Corynebacterium glutamicum strain R; assay: Influence of para-aminobenzoic acid on glucose consumption rate (jar fermenter); conditions: 0, 50, 100 or 200 mM para-aminobenzoic acid, 5% glucose, 33° C., pH 7.0
Method: Influences of para-aminobenzoic acid on the glucose consumption rate were examined by a method described below, using Corynebacterium glutamicum strain R.
After a wild strain of Corynebacterium glutamicum was inoculated in 10 ml of the A-liquid medium containing 2% glucose, aerobic shaking culture was carried out at 33° C. for 18 hours. After the same strain was inoculated in 100 ml of the A-liquid medium containing 2% glucose, aerobic shaking culture was carried out at 33° C. for 12 hours. […]
Bacterial cells of the strain grown under the above-described conditions were collected by centrifugation (4° C., 5000×g, 10 minutes), and the bacterial cells thus obtained were washed with 0.9% sodium chloride aqueous solution once. […] The glucose concentration in the reaction solution was monitored by using a glucose sensor.

SMILES: Nc1ccc(C(=O)O)cc1 [para-aminobenzoic acid, 4-aminobenzoic acid]
- growth of Corynebacterium glutamicum strain R ([1]; 300 mM para-aminobenzoic acid): able to grow
- growth of Corynebacterium glutamicum ([1]; 400 mM para-aminobenzoic acid): able to grow
- growth of Escherichia coli JM109 (Escherichia coli JM109; 100 mM para-aminobenzoic acid): significantly inhibited
- growth of Escherichia coli JM109 (Escherichia coli JM109; 300 mM para-aminobenzoic acid): substantially completely inhibited
- growth of Streptomyces lividans 1326 ([2]; 100 mM para-aminobenzoic acid): significantly inhibited
- growth of Streptomyces lividans 1326 ([2]; 200 mM para-aminobenzoic acid): substantially completely inhibited
- growth of Streptomyces lividans ([2]; 300 mM para-aminobenzoic acid): substantially completely inhibited
- growth of Pseudomonas putida S12 (Pseudomonas putida S12; 100 mM para-aminobenzoic acid, aerobic shaking culture 30° C.): substantially completely inhibited
- growth of Pseudomonas putida (Pseudomonas putida S12; 300 mM para-aminobenzoic acid): substantially completely inhibited
- growth of Saccharomyces cerevisiae W303 ([3]; 200 mM para-aminobenzoic acid): strongly inhibited
- growth of Saccharomyces cerevisiae W303 ([3]; 300 mM para-aminobenzoic acid): extremely strongly inhibited; also recorded: substantially completely inhibited
- saccharide (glucose) consumption rate of Corynebacterium glutamicum [4]: no substantial decrease
